{
  "source": "patent US12138262B2",
  "about": "“Process of manufacture of a compound for inhibiting the activity of SHP2, as well as products resulting from acid addition” (Novartis AG, priority 2018, dated 2024)",
  "assay_type_in_all_cases": "physicochemical",
  "key": {"[1]": {"test": "Excipient compatibility: degradation in experimental excipient mixtures at 50° C./75% RH"}, "[2]": {"test": "Dynamic vapor sorption / water content versus relative humidity", "conditions": "10% RH to 50% RH at room temperature", "protocol": "DVS/Dynamic Vapor Sorption) data were obtained as follows: Dynamic vapor sorption was performed using a SMS Advantage system. Approximately 10 mg of sample was subjected to varying humidities between 0% RH and 95% RH at 25° C. Evaluation was performed using the system software."}, "[3]": {"test": "Form conversion in aqueous organic solvent mixtures", "conditions": "aqueous organic solvent mixtures with very small quantities of water (1-2%)"}},
  "data": [
    {"smiles": "C[C@@H]1OCC2(CCN(c3cnc(Sc4ccnc(N)c4Cl)c(N)n3)CC2)[C@@H]1N", "note": "[Example 13, (3S,4S)-8-(6-amino-5-((2-amino-3-chloropyridin-4-yl)thio)pyrazin-2-yl)-3-methyl-2-oxa-8-azaspiro[4.5]decan-4-amine free base Modification A]", "values": [
      {"measurement": "degradation with excipient mixture containing HPMC", "setting": "[1]; mixture containing HPMC (Mixture 2)", "value": "strong degradation"}
    ]},
    {"smiles": "C[C@@H]1OCC2(CCN(c3cnc(Sc4ccnc(N)c4Cl)c(N)n3)CC2)[C@@H]1N.C[C@@H]1OCC2(CCN(c3cnc(Sc4ccnc(N)c4Cl)c(N)n3)CC2)[C@@H]1N.O.O=C(O)CCC(=O)O.O=C(O)CCC(=O)O", "note": "[Example 6, (3S,4S)-8-(6-amino-5-((2-amino-3-chloropyridin-4-yl)thio)pyrazin-2-yl)-3-methyl-2-oxa-8-azaspiro[4.5]decan-4-amine, succinate (1:1) hemihydrate, modification (form) HA]", "values": [
      {"measurement": "water content over 10% RH to 50% RH", "setting": "[2]", "value": "constant water content"},
      {"measurement": "degradation levels in excipient mixtures", "setting": "[1]; all four experimental excipient mixtures (Mixtures 1-4)", "value": "acceptable degradation levels"}
    ]},
    {"smiles": "C[C@@H]1OCC2(CCN(c3cnc(Sc4ccnc(N)c4Cl)c(N)n3)CC2)[C@@H]1N.O=C(O)CCC(=O)O", "note": "[Example 11, (3S,4S)-8-(6-amino-5-((2-amino-3-chloropyridin-4-yl)thio)pyrazin-2-yl)-3-methyl-2-oxa-8-azaspiro[4.5]decan-4-amine, succinate (1:1), anhydrous form, Modification A]", "values": [
      {"measurement": "conversion of solid form", "setting": "[3]", "value": "rapidly converted into Modification HA"}
    ]},
    {"smiles": "C[C@@H]1OCC2(CCN(c3cnc(Sc4ccnc(N)c4Cl)c(N)n3)CC2)[C@@H]1N.O=C(O)CCCCC(=O)O", "note": "[Example 10, (3S,4S)-8-(6-amino-5-((2-amino-3-chloropyridin-4-yl)thio)pyrazin-2-yl)-3-methyl-2-oxa-8-azaspiro[4.5]decan-4-amine adipate (1:1), Modification A]", "values": [
      {"measurement": "degradation with mixture containing mannitol, Ac-di-Sol and microcrystalline cellulose", "setting": "[1]; mixture containing mannitol, Ac-di-Sol and microcrystalline cellulose (Mixture 4)", "value": "strong degradation"}
    ]}
  ]
}
